Patent publication US20250288584A1, “COMBINATIONS COMPRISING POSITIVE ALLOSTERIC MODULATORS OR ORTHOSTERIC AGONISTS OF METABOTROPIC GLUTAMATERGIC RECEPTOR SUBTYPE 2 AND THEIR USE” (JANSSEN PHARMACEUTICA NV, priority 2014, published 2025)
Entries after “also recorded” stand apart in the source; their conditions may differ.

Tests used:
[1] = test system: 6 Hz (32 mA) psychomotor seizures; assay: 6 Hz psychomotor seizure test, 32 mA (incl. TPE determination); type: in vivo, mice
Procedure: Test compounds were administered using an optimal fluid volume to body fluid ratio. Test compounds were administered to mice in a volume of 0.01 mL/g of body weight (White H. S., et al., General Principles: Experimental selection, quantification, and evaluation of antiepileptic drugs, in Antiepileptic Drugs, Fourth Edition, […], and B. S. Meldrum, Editors. 1995, Raven Press, Ltd.: New York, pp. 99-110). For subcutaneous (s.c.) administration, the test compounds were administered into a loose fold of skin along the back of the animal except compound 6-b, which was administered orally (p.o). […] The animals were maintained on an adequate diet (Prolab RMH 3000) and allowed free access to food and water, except during the short time they were removed from their cage for testing. Animals newly received in the laboratory were allowed sufficient time to correct for possible food and water restriction incurred during transit before being employed in testing. All mice were housed in plastic cages in specially constructed rooms with controlled humidity, exchange of air and controlled lighting (12 hours on-12 hours off). The animals were housed, fed, and handled in a manner consistent with the recommendations in the National Council Publication, “Guide for the Care and Use of Laboratory Animals”. In the determination of an ED50 or TD50 for each test compound, the first dose administered is usually the same dose as that used in a successful TPE determination. […] Third and fourth doses were selected to produce an evenly spaced dose response line. […] TPE was determined using the 6 Hz (32 mA) assay. […] The 6 Hz seizure test is used as a model of pharmacoresistant limbic seizures. […] Focal seizures were induced in mice via corneal stimulation (6 Hz, 0.2 msec rectangular pulse, 3 sec duration; Barton et al. 2001). Mice were tested at either 32 mA or 44 mA. […] The seizures that arise from corneal stimulation in this assay are characterized by a minimal clonic phase followed by stereotyped automatistic behaviors including stun, forelimb clonus, twitching of the vibrissae, and Straub-tail. Animals not displaying these behaviors were considered protected.

[2] = test system: 6 Hz (44 mA) psychomotor seizures; assay: 6 Hz psychomotor seizure test, 44 mA (alone, combination with LEV, isobolographic study); type: in vivo, mice
Procedure: Test compounds were administered using an optimal fluid volume to body fluid ratio. Test compounds were administered to mice in a volume of 0.01 mL/g of body weight (White H. S., et al., General Principles: Experimental selection, quantification, and evaluation of antiepileptic drugs, in Antiepileptic Drugs, Fourth Edition, […], and B. S. Meldrum, Editors. 1995, Raven Press, Ltd.: New York, pp. 99-110). For subcutaneous (s.c.) administration, the test compounds were administered into a loose fold of skin along the back of the animal except compound 6-b, which was administered orally (p.o). […] The animals were maintained on an adequate diet (Prolab RMH 3000) and allowed free access to food and water, except during the short time they were removed from their cage for testing. Animals newly received in the laboratory were allowed sufficient time to correct for possible food and water restriction incurred during transit before being employed in testing. All mice were housed in plastic cages in specially constructed rooms with controlled humidity, exchange of air and controlled lighting (12 hours on-12 hours off). The animals were housed, fed, and handled in a manner consistent with the recommendations in the National Council Publication, “Guide for the Care and Use of Laboratory Animals”. In the determination of an ED50 or TD50 for each test compound, the first dose administered is usually the same dose as that used in a successful TPE determination. […] Third and fourth doses were selected to produce an evenly spaced dose response line. […] The 6 Hz seizure test is used as a model of pharmacoresistant limbic seizures. […] Focal seizures were induced in mice via corneal stimulation (6 Hz, 0.2 msec rectangular pulse, 3 sec duration; Barton et al. 2001). Mice were tested at either 32 mA or 44 mA. […] The seizures that arise from corneal stimulation in this assay are characterized by a minimal clonic phase followed by stereotyped automatistic behaviors including stun, forelimb clonus, twitching of the vibrissae, and Straub-tail. Animals not displaying these behaviors were considered protected. […] In addition to recording the efficacy and toxicity data for these compounds alone or in combination, both plasma and brain samples were collected from each of the groups for pharmacokinetic/pharmacokinetic analysis. No pharmacokinetic interaction was observed based on compound levels in the plasma and brain samples (data not shown). Isobolographic studies were conducted for the combined administration of Co. […] Studies were conducted according to previously described methods (Madsen et al. 2011). Initial ED50 values were determined for both Co. […] Co. […] Doses used were proportional to calculated ED50 values. […] Experimental treatment doses (see Table 4) were based on theoretical values and adjusted according to observed effects. Experimentally determined ED50 (+SEM) values for each fixed dose-ratio combination were compared to the theoretical values (t-test) for statistical purposes. […] Subsequently, the experimental combined doses were determined for the same paradigms in the 6 Hz seizure test (Table 4 below).

[3] = Minimal motor impairment (rotarod); type: in vivo, mice
Procedure: Acute MMI was assessed by a combination of direct observations of the animal for overt symptoms of the animal's neurological or muscular function. In mice, the rotarod procedure was used to disclose minimal muscular or neurological impairment. When a mouse is placed on a rod that rotates at a speed of 6 rpm, the animal can maintain its equilibrium for long periods of time. The animal was considered toxic if it fell off this rotating rod three times during a 1 min period.
In the determination of an ED50 or TD50 for each test compound, the first dose administered is usually the same dose as that used in a successful TPE determination.
If the initial dose employed was effective or toxic in more than 50% of animals, the next dose would be one-half that of the initial dose; if the initial dose was effective or toxic in less than 50% of animals, the following dose would be twice that of the initial dose. Third and fourth doses were selected to produce an evenly spaced dose response line. There should be a minimum of 4 points either including or lying between 0 and 100%.

human mGlu2 receptor = target: T1, human mGlu2 receptor (Homo sapiens, UniProt Q14416); assay: [35S]GTPγS binding assay, mGluR2 PAM; type: biochemical; conditions: GTPγS assay; read-out: Emax
T1 construct: expressed in transfected cells; host or cells: CHO cells
T1 sequence (Q14416 19-872): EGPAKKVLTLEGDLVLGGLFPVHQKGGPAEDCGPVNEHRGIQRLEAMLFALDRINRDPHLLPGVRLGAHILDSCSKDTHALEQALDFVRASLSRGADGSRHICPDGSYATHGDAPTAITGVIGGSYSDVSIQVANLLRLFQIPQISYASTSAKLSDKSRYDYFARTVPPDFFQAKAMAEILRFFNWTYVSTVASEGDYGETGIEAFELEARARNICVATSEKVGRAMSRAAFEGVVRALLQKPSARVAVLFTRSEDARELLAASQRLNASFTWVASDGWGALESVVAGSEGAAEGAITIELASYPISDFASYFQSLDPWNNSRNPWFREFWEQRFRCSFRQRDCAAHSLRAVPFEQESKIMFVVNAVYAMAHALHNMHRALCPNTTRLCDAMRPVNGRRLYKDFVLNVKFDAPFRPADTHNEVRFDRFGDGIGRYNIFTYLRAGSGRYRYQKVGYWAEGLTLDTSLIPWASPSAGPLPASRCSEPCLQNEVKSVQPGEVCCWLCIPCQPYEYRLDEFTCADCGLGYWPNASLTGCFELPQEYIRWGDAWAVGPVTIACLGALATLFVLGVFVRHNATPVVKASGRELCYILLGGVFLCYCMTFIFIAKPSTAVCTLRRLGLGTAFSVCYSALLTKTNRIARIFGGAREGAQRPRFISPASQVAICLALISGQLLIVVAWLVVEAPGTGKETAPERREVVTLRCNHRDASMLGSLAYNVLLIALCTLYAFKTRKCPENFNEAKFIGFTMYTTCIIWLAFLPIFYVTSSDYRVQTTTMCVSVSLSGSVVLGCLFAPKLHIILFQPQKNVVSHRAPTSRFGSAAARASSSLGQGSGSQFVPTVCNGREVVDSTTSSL
Procedure: The [^35S]GTPγS binding assay is a functional membrane-based assay used to study G-protein coupled receptor (GPCR) function whereby incorporation of a non-hydrolysable form of GTP, [^35S]GTPγS (guanosine 5′-triphosphate, labelled with […] ^35S), is measured.
Cells were then collected by scraping in PBS and cell suspension was centrifuged (10 min at 4000 RPM in benchtop centrifuge). Supernatant was discarded and pellet gently resuspended in 50 mM Tris-HCl, pH 7.4 by mixing with a vortex and pipetting up and down. The suspension was centrifuged at 16,000 RPM (Sorvall RC-5C plus rotor SS-34) for 10 minutes and the supernatant discarded. The pellet was homogenized in 5 mM Tris-HCl, pH 7.4 using an ultra-turrax homogenizer and centrifuged again (18,000 RPM, 20 min, 4° C.). The final pellet was resuspended in 50 mM Tris-HCl, pH 7.4 and stored at-80° C. in appropriate aliquots before use. Protein concentration was determined by the Bradford method (Bio-Rad, USA) with bovine serum albumin as standard.
Measurement of mGluR2 positive allosteric modulatory activity of test compounds was performed as follows. Test compounds and glutamate were diluted in assay buffer containing 10 mM HEPES acid, 10 mM HEPES salt, pH 7.4, 100 mM NaCl, 3 mM MgCl2 and 10 μM GDP. Human mGlu2 receptor-containing membranes were thawed on ice and diluted in assay buffer supplemented with 14 μg/ml saponin. Membranes were pre-incubated with compound alone or together with a predefined (˜EC20) concentration of glutamate (PAM assay) for 30 min at 30° C. After addition of [^35S] GTPγS (f.c. 0.1 nM), assay mixtures were shaken briefly and further incubated to allow [^35S] GTPγS incorporation on activation (30 minutes, 30° C.). Final assay mixtures contained 7 μg of membrane protein in 10 mM HEPES acid, 10 mM HEPES salt, pH 7.4, 100 mM NaCl, 3 mM MgCl2, 10 µM GDP and 2 μg/ml saponin. Total reaction volume was 200 μl. Reactions were terminated by rapid filtration through Unifilter-96 GF/B plates (Perkin Elmer, Massachusetts, USA) using a 96-well filtermate universal harvester. Filters were washed 6 times with ice-cold 10 mM NaH2PO4/10 mM Na2HPO4, pH 7.4. Filters were then air-dried, and 40 μl of liquid scintillation cocktail (Microscint-O) was added to each well. Membrane-bound radioactivity was counted in a Microplate Scintillation and Luminescence Counter from Perkin Elmer.
The concentration-response curves of representative compounds of the present invention-obtained in the presence of EC20 of mGluR2 agonist glutamate to determine positive allosteric modulation (PAM)—were generated using the Lexis software interface (developed at J&J). Data were calculated as % of the control glutamate response, defined as the maximal response that is generated upon addition of glutamate alone. Sigmoid concentration-response curves plotting these percentages versus the log concentration of the test compound were analyzed using non-linear regression analysis. The concentration producing half-maximal effect is then calculated as EC50. The pEC50 values below were calculated as the −log EC50, when the EC50 is expressed in M. Emax is defined as relative maximal effect (i.e. maximal % effect relative to the control glutamate response).

Cc1cc(-c2nc(CN3CCNCC3)no2)cc2c1C(=O)N(Cc1ccc(OC(F)(F)F)cc1)C2 [CAS 1092453-15-0, 2,3-dihydro-7-methyl-5-[3-(1-piperazinylmethyl)-1,2,4-oxadiazol-5-yl]-2-[[4-(trifluoromethoxy)phenyl]methyl]-1H-isoindol-1-one, reference compound]
# protected/# tested ([1]; 20 mg/kg s.c., 0.25 h): 1/4
# protected/# tested ([1]; 20 mg/kg s.c., 0.5 h): 0/4
# protected/# tested ([1]; 20 mg/kg s.c., 1 h): 1/4
# protected/# tested ([1]; 20 mg/kg s.c., 2 h): 0/4
# protected/# tested ([1]; 20 mg/kg s.c., 4 h): 0/4
# protected/# tested ([1]; 40 mg/kg s.c., 0.25 h): 1/4
# protected/# tested ([1]; 40 mg/kg s.c., 0.5 h): 1/4
# protected/# tested ([1]; 40 mg/kg s.c., 1 h): 1/4
# protected/# tested ([1]; 40 mg/kg s.c., 2 h): 0/4
# protected/# tested ([1]; 40 mg/kg s.c., 4 h): 0/4
# protected/# tested ([1]; 80 mg/kg s.c., 0.25 h): 0/4
# protected/# tested ([1]; 80 mg/kg s.c., 0.5 h): 0/4
# protected/# tested ([1]; 80 mg/kg s.c., 1 h): 1/4
activity in the 6 Hz 32 mA test ([1]; result in words): Low activity; also recorded: did not show activity
activity in the 6 Hz 44 mA test ([2]; result in words): did not show activity
pharmacodynamic interaction with LEV in the 6 Hz model ([2]; result in words): did not display synergy
# rotarod motor impairment/# tested ([3]; 20 mg/kg s.c., 0.25 h, 32 mA group): 0/4
# rotarod motor impairment/# tested ([3]; 20 mg/kg s.c., 0.5 h, 32 mA group): 0/4
# rotarod motor impairment/# tested ([3]; 20 mg/kg s.c., 1 h, 32 mA group): 0/4
# rotarod motor impairment/# tested ([3]; 20 mg/kg s.c., 2 h, 32 mA group): 0/4
# rotarod motor impairment/# tested ([3]; 20 mg/kg s.c., 4 h, 32 mA group): 0/4
# rotarod motor impairment/# tested ([3]; 40 mg/kg s.c., 0.25 h, 32 mA group): 0/4
# rotarod motor impairment/# tested ([3]; 40 mg/kg s.c., 0.5 h, 32 mA group): 0/4
# rotarod motor impairment/# tested ([3]; 40 mg/kg s.c., 1 h, 32 mA group): 0/4
# rotarod motor impairment/# tested ([3]; 40 mg/kg s.c., 2 h, 32 mA group): 0/4
# rotarod motor impairment/# tested ([3]; 40 mg/kg s.c., 4 h, 32 mA group): 0/4
# rotarod motor impairment/# tested ([3]; 80 mg/kg s.c., 0.25 h, 32 mA group): 0/4
# rotarod motor impairment/# tested ([3]; 80 mg/kg s.c., 0.5 h, 32 mA group): 0/4
# rotarod motor impairment/# tested ([3]; 80 mg/kg s.c., 1 h, 32 mA group): 1/4

Cc1cc(-c2nc(CN3CCNCC3)no2)cc2c1C(=O)N(Cc1ccc(OC(F)(F)F)cc1)C2 [[CAS 1092453-15-0]]
Emax (human mGlu2 receptor): 197%
responders at 20 mg/kg ([2]; Mus musculus, 6 Hz (44 mA), [CAS 1092453-15-0] 20 mg/kg, alone, read-out: # protected/# tested (converted)): 0%
# rotarod motor impairment/# tested ([3]; [CAS 1092453-15-0] 20 mg/kg, alone): 0/8
